What was measured:
[1] = tested on: A. baumannii ATCC 17978 (SEN) and A. baumannii ATCC BAA-1605 (MDR); assay: Adaptive laboratory evolution (ALE), relative MIC of evolved lines; format: cell-based, Acinetobacter baumannii
Method in brief: (§1)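 Ten parallel populations per antibiotic–ancestor pair were evolved in MHB at 37 °C, starting near 50% growth-inhibiting drug. Every 72 h they were passaged into 0.5–2.5× increasing concentrations, keeping the highest-drug well with OD600 > 0.2.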

[2] = tested on: K. pneumoniae ATCC 10031 (SEN) and K. pneumoniae ATCC 700603 (MDR); assay: as above; format: cell-based, Klebsiella pneumoniae
Method in brief: as §1

[3] = AB-MDR (Acinetobacter baumannii ATCC BAA 1605), evolved line 2
[4] = AB-MDR (Acinetobacter baumannii ATCC BAA 1605), evolved line 5
[5] = AB-MDR (Acinetobacter baumannii ATCC BAA 1605), evolved line 7
[6] = AB-MDR (Acinetobacter baumannii ATCC BAA 1605), evolved line 9
[7] = AB-MDR (Acinetobacter baumannii ATCC BAA 1605), evolved line 10
[8] = AB-SEN (Acinetobacter baumannii ATCC 17978), evolved line 4
[9] = AB-SEN (Acinetobacter baumannii ATCC 17978), evolved line 6
[10] = AB-SEN (Acinetobacter baumannii ATCC 17978), evolved line 8
[11] = AB-SEN (Acinetobacter baumannii ATCC 17978), evolved line 9
[12] = AB-SEN (Acinetobacter baumannii ATCC 17978), evolved line 10
[13] = KP-SEN (Klebsiella pneumoniae ATCC 10031), evolved line 1
[14] = KP-SEN (Klebsiella pneumoniae ATCC 10031), evolved line 4
[15] = KP-SEN (Klebsiella pneumoniae ATCC 10031), evolved line 8
[16] = KP-SEN (Klebsiella pneumoniae ATCC 10031), evolved line 9
[17] = KP-SEN, Klebsiella pneumoniae ATCC 10031, evolved line 5

CC(C)c1ccc(Cn2ccc3c4c(N)nc(NC5CC5)nc4ccc32)cc1 [SCH79797]
2: Relative MIC ([1]; AB-MDR (A. baumannii ATCC BAA 1605), evolved line 2 vs ancestor) | Relative MIC ([1]; AB-MDR (A. baumannii ATCC BAA 1605), evolved line 5 vs ancestor) | Relative MIC ([1]; AB-MDR (A. baumannii ATCC BAA 1605), evolved line 9 vs ancestor) | Relative MIC ([1]; AB-MDR (A. baumannii ATCC BAA 1605), evolved line 10 vs ancestor) | Relative MIC [1, 3] | Relative MIC [1, 4] | Relative MIC [1, 6] | Relative MIC [1, 7] | Relative MIC ([1]; AB-SEN (A. baumannii ATCC 17978), evolved line 4 vs ancestor) | Relative MIC ([1]; AB-SEN (A. baumannii ATCC 17978), evolved line 6 vs ancestor) | Relative MIC ([1]; AB-SEN (A. baumannii ATCC 17978), evolved line 8 vs ancestor) | Relative MIC ([1]; AB-SEN (A. baumannii ATCC 17978), evolved line 9 vs ancestor) | Relative MIC ([1]; AB-SEN (A. baumannii ATCC 17978), evolved line 10 vs ancestor) | Relative MIC [1, 8] | Relative MIC [1, 9] | Relative MIC [1, 10] | Relative MIC [1, 11] | Relative MIC [1, 12] | Relative MIC ([1]; ALE, Acinetobacter baumannii ATCC 17978 (AB-SEN), evolved line 4) | Relative MIC ([1]; ALE, Acinetobacter baumannii ATCC 17978 (AB-SEN), evolved line 6) | Relative MIC ([1]; ALE, Acinetobacter baumannii ATCC 17978 (AB-SEN), evolved line 8) | Relative MIC ([1]; ALE, Acinetobacter baumannii ATCC 17978 (AB-SEN), evolved line 9) | Relative MIC ([1]; ALE, Acinetobacter baumannii ATCC 17978 (AB-SEN), evolved line 10) | Relative MIC ([1]; ALE, Acinetobacter baumannii ATCC BAA 1605 (AB-MDR), evolved line 2) | Relative MIC ([1]; ALE, Acinetobacter baumannii ATCC BAA 1605 (AB-MDR), evolved line 5) | Relative MIC ([1]; ALE, Acinetobacter baumannii ATCC BAA 1605 (AB-MDR), evolved line 9) | Relative MIC ([1]; ALE, Acinetobacter baumannii ATCC BAA 1605 (AB-MDR), evolved line 10) | Relative MIC ([1]; Acinetobacter baumannii ATCC 17978 (AB-SEN), evolved line 4) | Relative MIC ([1]; Acinetobacter baumannii ATCC 17978 (AB-SEN), evolved line 6) | Relative MIC ([1]; Acinetobacter baumannii ATCC 17978 (AB-SEN), evolved line 8) | Relative MIC ([1]; Acinetobacter baumannii ATCC 17978 (AB-SEN), evolved line 9) | Relative MIC ([1]; Acinetobacter baumannii ATCC 17978 (AB-SEN), evolved line 10) | Relative MIC ([1]; Acinetobacter baumannii ATCC BAA 1605 (AB-MDR), evolved line 2) | Relative MIC ([1]; Acinetobacter baumannii ATCC BAA 1605 (AB-MDR), evolved line 5) | Relative MIC ([1]; Acinetobacter baumannii ATCC BAA 1605 (AB-MDR), evolved line 9) | Relative MIC ([1]; Acinetobacter baumannii ATCC BAA 1605 (AB-MDR), evolved line 10) | Relative MIC ([2]; ALE, Klebsiella pneumoniae ATCC 10031 (KP-SEN), evolved line 3) | Relative MIC ([2]; ALE, Klebsiella pneumoniae ATCC 10031 (KP-SEN), evolved line 6) | Relative MIC ([2]; ALE, Klebsiella pneumoniae ATCC 10031 (KP-SEN), evolved line 10) | Relative MIC ([2]; KP-SEN (K. pneumoniae ATCC 10031), evolved line 3 vs ancestor) | Relative MIC ([2]; KP-SEN (K. pneumoniae ATCC 10031), evolved line 6 vs ancestor) | Relative MIC ([2]; KP-SEN (K. pneumoniae ATCC 10031), evolved line 10 vs ancestor) | Relative MIC ([2]; KP-SEN (Klebsiella pneumoniae ATCC 10031), evolved line 3) | Relative MIC ([2]; KP-SEN (Klebsiella pneumoniae ATCC 10031), evolved line 6) | Relative MIC ([2]; KP-SEN (Klebsiella pneumoniae ATCC 10031), evolved line 10) | Relative MIC ([2]; Klebsiella pneumoniae ATCC 10031 (KP-SEN), evolved line 3) | Relative MIC ([2]; Klebsiella pneumoniae ATCC 10031 (KP-SEN), evolved line 6) | Relative MIC ([2]; Klebsiella pneumoniae ATCC 10031 (KP-SEN), evolved line 10)
1.204 log10: Relative MIC (log10) [2, 13] | Relative MIC (log10) [2, 14]
8: Relative MIC ([2]; ALE, Klebsiella pneumoniae ATCC 10031 (KP-SEN), evolved line 8) | Relative MIC ([2]; ALE, Klebsiella pneumoniae ATCC 10031 (KP-SEN), evolved line 9) | Relative MIC ([2]; KP-SEN (K. pneumoniae ATCC 10031), evolved line 8 vs ancestor) | Relative MIC ([2]; KP-SEN (K. pneumoniae ATCC 10031), evolved line 9 vs ancestor) | Relative MIC [2, 15] | Relative MIC [2, 16] | Relative MIC ([2]; Klebsiella pneumoniae ATCC 10031 (KP-SEN), evolved line 8) | Relative MIC ([2]; Klebsiella pneumoniae ATCC 10031 (KP-SEN), evolved line 9)
0.301 log10: Relative MIC (log10) [1, 3] | Relative MIC (log10) [1, 4] | Relative MIC (log10) [1, 6] | Relative MIC (log10) [1, 7] | Relative MIC (log10) [1, 8] | Relative MIC (log10) [1, 9] | Relative MIC (log10) [1, 10] | Relative MIC (log10) [1, 11] | Relative MIC (log10) [1, 12]
8 µg/mL: MIC of evolved line ([1]; AB-MDR (A. baumannii ATCC BAA 1605), evolved line 2 of the given antibiotic) | MIC of evolved line ([1]; AB-MDR (A. baumannii ATCC BAA 1605), evolved line 5 of the given antibiotic) | MIC of evolved line ([1]; AB-MDR (A. baumannii ATCC BAA 1605), evolved line 9 of the given antibiotic) | MIC of evolved line ([1]; AB-MDR (A. baumannii ATCC BAA 1605), evolved line 10 of the given antibiotic) | MIC of evolved line ([1]; AB-SEN (A. baumannii ATCC 17978), evolved line 4 of the given antibiotic) | MIC of evolved line ([1]; AB-SEN (A. baumannii ATCC 17978), evolved line 6 of the given antibiotic) | MIC of evolved line ([1]; AB-SEN (A. baumannii ATCC 17978), evolved line 8 of the given antibiotic) | MIC of evolved line ([1]; AB-SEN (A. baumannii ATCC 17978), evolved line 9 of the given antibiotic) | MIC of evolved line ([1]; AB-SEN (A. baumannii ATCC 17978), evolved line 10 of the given antibiotic) | MIC of evolved line ([2]; KP-SEN (K. pneumoniae ATCC 10031), evolved line 3 of the given antibiotic) | MIC of evolved line ([2]; KP-SEN (K. pneumoniae ATCC 10031), evolved line 6 of the given antibiotic) | MIC of evolved line ([2]; KP-SEN (K. pneumoniae ATCC 10031), evolved line 10 of the given antibiotic)
16 µg/mL: MIC of evolved line ([1]; AB-MDR (A. baumannii ATCC BAA 1605), evolved line 7 of the given antibiotic) | MIC of evolved line ([2]; KP-SEN (K. pneumoniae ATCC 10031), evolved line 2 of the given antibiotic) | MIC of evolved line ([2]; KP-SEN (K. pneumoniae ATCC 10031), evolved line 7 of the given antibiotic)
128 µg/mL: MIC of evolved line ([2]; KP-SEN (K. pneumoniae ATCC 10031), evolved line 5 of the given antibiotic)
0.9031 log10: Relative MIC (log10) [2, 15] | Relative MIC (log10) [2, 16]
1.505 log10: Relative MIC (log10) [2, 17]
32 µg/mL: MIC of evolved line ([2]; KP-SEN (K. pneumoniae ATCC 10031), evolved line 8 of the given antibiotic) | MIC of evolved line ([2]; KP-SEN (K. pneumoniae ATCC 10031), evolved line 9 of the given antibiotic)
64 µg/mL: MIC of evolved line ([2]; KP-SEN (K. pneumoniae ATCC 10031), evolved line 1 of the given antibiotic) | MIC of evolved line ([2]; KP-SEN (K. pneumoniae ATCC 10031), evolved line 4 of the given antibiotic)
4 µg/mL: MIC of evolved line ([1]; AB-SEN (A. baumannii ATCC 17978), evolved line 2 of the given antibiotic)
4: Relative MIC ([1]; AB-MDR (A. baumannii ATCC BAA 1605), evolved line 7 vs ancestor) | Relative MIC [1, 5] | Relative MIC ([1]; ALE, Acinetobacter baumannii ATCC BAA 1605 (AB-MDR), evolved line 7) | Relative MIC ([1]; Acinetobacter baumannii ATCC BAA 1605 (AB-MDR), evolved line 7) | Relative MIC ([2]; ALE, Klebsiella pneumoniae ATCC 10031 (KP-SEN), evolved line 2) | Relative MIC ([2]; ALE, Klebsiella pneumoniae ATCC 10031 (KP-SEN), evolved line 7) | Relative MIC ([2]; KP-SEN (K. pneumoniae ATCC 10031), evolved line 2 vs ancestor) | Relative MIC ([2]; KP-SEN (K. pneumoniae ATCC 10031), evolved line 7 vs ancestor) | Relative MIC ([2]; KP-SEN (Klebsiella pneumoniae ATCC 10031), evolved line 2) | Relative MIC ([2]; KP-SEN, Klebsiella pneumoniae ATCC 10031, evolved line 7) | Relative MIC ([2]; Klebsiella pneumoniae ATCC 10031 (KP-SEN), evolved line 2) | Relative MIC ([2]; Klebsiella pneumoniae ATCC 10031 (KP-SEN), evolved line 7)
0.6021 log10: Relative MIC (log10) [1, 5]
1: Relative MIC ([1]; AB-SEN (A. baumannii ATCC 17978), evolved line 2 vs ancestor) | Relative MIC ([1]; AB-SEN (Acinetobacter baumannii ATCC 17978), evolved line 2) | Relative MIC ([1]; ALE, Acinetobacter baumannii ATCC 17978 (AB-SEN), evolved line 2) | Relative MIC ([1]; Acinetobacter baumannii ATCC 17978 (AB-SEN), evolved line 2)
16: Relative MIC ([2]; ALE, Klebsiella pneumoniae ATCC 10031 (KP-SEN), evolved line 1) | Relative MIC ([2]; ALE, Klebsiella pneumoniae ATCC 10031 (KP-SEN), evolved line 4) | Relative MIC ([2]; KP-SEN (K. pneumoniae ATCC 10031), evolved line 1 vs ancestor) | Relative MIC ([2]; KP-SEN (K. pneumoniae ATCC 10031), evolved line 4 vs ancestor) | Relative MIC [2, 13] | Relative MIC [2, 14] | Relative MIC ([2]; Klebsiella pneumoniae ATCC 10031 (KP-SEN), evolved line 1) | Relative MIC ([2]; Klebsiella pneumoniae ATCC 10031 (KP-SEN), evolved line 4)
32: Relative MIC ([2]; ALE, Klebsiella pneumoniae ATCC 10031 (KP-SEN), evolved line 5) | Relative MIC ([2]; KP-SEN (K. pneumoniae ATCC 10031), evolved line 5 vs ancestor) | Relative MIC [2, 17] | Relative MIC ([2]; Klebsiella pneumoniae ATCC 10031 (KP-SEN), evolved line 5)

Source: article PMC11845477, “Exploring the principles behind antibiotics with limited resistance” (Nature Communications, 2025)
